# Test results as given in US9605078B2, “Pictet-Spengler ligation for protein chemical modification” (THE REGENTS OF THE UNIVERSITY OF CALIFORNIA, priority 2012, dated 2017).
# Assay: Small molecule hydrolysis of model oxime and oxacarboline, followed by liquid chromatography
# Type: physicochemical
# Settings: 1 μM, buffered solutions at pH 4.5 or 5.0, room temperature, over two days
# Procedure: Small molecule hydrolysis: Hydrolysis solutions contained 1 μM 5a or 5b, 25 μM phenylalanine as an internal standard, and 5 mM sodium acetate at the appropriate pH. The solutions were incubated at room temperature and 50 μL aliquots were repeatedly analyzed by liquid chromatography on an Agilent 1200 instrument using an Agilent Poroshell 120 EC-C18 reverse phase column (4.6×50 mm) with a solvent flow rate of 0.4 mL/min. The following gradient was employed (time (min), % MeCN in H2O with 0.1% TFA): 0, 5; 10, 95; 12, 95; 14, 5; 19, 5. The time of the first injection for each solution was assigned as t=0. Integrals of the absorption peaks for 5a and 5b at 440 nm were normalized against the phenylalanine peak for each injection.
Structure (SMILES),conjugate remained intact (liquid chromatography),hydrolysis of conjugate (liquid chromatography)
"CN1OCc2c(c3ccccc3n2CCC(=O)O)C1CCNC(=O)c1ccc(-c2c3ccc(=O)cc-3oc3cc(O)ccc23)c(C(=O)O)c1 (centres unmarked) [Compound 5b, 5-((2-(5-(2-Carboxyethyl)-2-methyl-1,2,4,5-tetrahydro-[1,2]oxazino [5,4-b]indol-1-yl)ethyl)carbamoyl)-2-(6-hydroxy-3-oxo-3H-xanthen-9-yl)benzoic acid]",over 90%,–
"O=C(NCCC=NOCc1ccccc1)c1ccc(-c2c3ccc(=O)cc-3oc3cc(O)ccc23)c(C(=O)O)c1 (racemic) [Compound 5a, 5-((3-((Benzyloxy)imino)propyl)carbamoyl)-2-(6-hydroxy-3-oxo-3H-xanthen-9-yl)benzoic acid]",–,majority of oxime 5a hydrolyzed
